Assay results: patent US10144715B2, “Piperazine derivatives as liver X receptor modulators” (priority 2014, dated 2018)
Read-outs that look alike come from different tables or passages of the source.

Assays:
[1] = target: LXR α LBD protein (Homo sapiens (Human), UniProt Q13133); assay: LXR α radioligand binding assay (SPA, competition with [3H]TO901317); conditions: read-out: LXRα Binding Ki
[2] = target: Gal4 DNA binding domain fused to the LBD of LXRα in HEK293 cells (Homo sapiens (Human), UniProt Q13133); assay: LXR luciferase transcriptional reporter gene assay, agonist mode, LXRα; type: cell-based; conditions: for EC50: read-out: Cell LXRα EC50
Gal4 DNA binding domain fused to the LBD of LXRα in HEK293 cells, sequence (Q13133 209-447): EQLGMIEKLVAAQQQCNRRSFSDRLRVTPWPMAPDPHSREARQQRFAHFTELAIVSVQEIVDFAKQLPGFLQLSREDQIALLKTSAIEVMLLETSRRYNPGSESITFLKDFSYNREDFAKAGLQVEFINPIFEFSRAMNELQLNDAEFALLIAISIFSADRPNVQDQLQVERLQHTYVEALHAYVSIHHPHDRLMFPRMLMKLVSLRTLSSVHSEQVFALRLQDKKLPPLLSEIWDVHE

[3] = target: Gal4 DNA binding domain fused to the LBD of LXRβ in HEK293 cells (Homo sapiens (Human), UniProt P55055); assay: cell-based
Gal4 DNA binding domain fused to the LBD of LXRβ in HEK293 cells, sequence (P55055 222-460 limits assumed): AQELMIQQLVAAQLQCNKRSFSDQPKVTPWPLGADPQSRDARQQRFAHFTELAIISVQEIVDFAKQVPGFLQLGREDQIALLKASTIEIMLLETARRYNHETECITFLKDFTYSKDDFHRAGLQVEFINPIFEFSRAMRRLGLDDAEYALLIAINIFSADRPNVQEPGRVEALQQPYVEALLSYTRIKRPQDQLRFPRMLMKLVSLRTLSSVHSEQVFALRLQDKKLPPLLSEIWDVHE

[4] = Biological Test Example 2, agonist mode
[5] = Biological Test Example 2, agonist mode, read-out: Cell LXRβ EC50

LXR α LBD protein, sequence (Q13133 209-447): as the sequence (Q13133 209-447) above

CC(C)[C@@H]1CN(c2cccc(S(C)(=O)=O)c2)CCN1C[C@H]1CC[C@@H](C(F)(F)F)CC1 (single isomer, unassigned) [48-9]
Ki [1]: 0.49 µM
Cell LXRα efficacy [2]: 3201 (94) %
EC50 [2]: 3.2 µM

CC(C)[C@@H]1CN(c2cccc(S(C)(=O)=O)c2)CCN1C[C@H]1CC[C@H](C(F)(F)F)CC1 (single isomer, unassigned) [48-10]
Ki [1]: 1.68 µM
Cell LXRα efficacy [2]: 9657 (80) %
EC50 [2]: 9.66 µM

CC(C)[C@H]1CN(c2cccc(S(C)(=O)=O)c2)CCN1C[C@H]1CC[C@H](C(F)(F)F)CC1 (single isomer, unassigned) [48-12]
Ki [1]: 0.245 µM
Cell LXRα efficacy [2]: 363 (66) %
EC50 [2]: 0.363 µM

CC1(C)CCC(CN2CCN(c3ccc(CO)c(S(C)(=O)=O)c3)C[C@@H]2c2ccccc2)CC1 (single isomer, unassigned) [48-26]
Ki [1]: 0.039 µM
Cell LXRα efficacy [2]: 364 (73) %
EC50 ([2]; agonist mode): 0.364 µM

CC1(C)CCC(CN2CCN(c3ccc(CO)c(S(C)(=O)=O)c3)C[C@H]2c2ccccc2)CC1 (single isomer, unassigned) [48-27]
Ki [1]: 2.86 µM
Cell LXRα efficacy [2]: 18123 (60) %
EC50 ([2]; agonist mode): 18.1 µM

CS(=O)(=O)c1cccc(N2CCN(C[C@H]3CC[C@H](C(F)(F)F)CC3)[C@H](c3ccccc3Cl)C2)c1 (single isomer, unassigned) [48-47]
EC50 [2]: > 20 µM
Cell LXRβ efficacy [3, 4]: 26%
EC50 [3, 5]: 1.39 µM

CC(C)[C@H]1CN(c2ccc(CO)c(S(C)(=O)=O)c2)CCN1C[C@H]1CCN(CC(F)(F)F)C1 (single isomer, unassigned) [48-58]
Ki ([1]; Biological Test Example 1): > 3.33 µM
Cell LXRα efficacy [2]: 3252 (56) %
EC50 [2, 4]: 3.25 µM

CC(C)[C@H]1CN(c2ccc(CO)c(S(C)(=O)=O)c2)CCN1C[C@@H]1CCN(CC(F)(F)F)C1 (single isomer, unassigned) [48-59]
Ki ([1]; Biological Test Example 1): 3.16 µM
Cell LXRα efficacy [2]: 1189 (54) %
EC50 [2, 4]: 1.19 µM

CS(=O)(=O)c1cccc(N2CCN(C[C@H]3C[C@@H]4[C@H](C3)C4(F)F)[C@H](c3ccccc3)C2)c1 (single isomer, unassigned) [48-65]
EC50 [2]: > 20 µM
Cell LXRβ efficacy [3, 4]: 48%
EC50 [3, 5]: 7.05 µM

CC(C)[C@H]1CN(c2cccc(S(C)(=O)=O)c2)CCN1C[C@H]1CC[C@@H](C(F)(F)F)CC1 (single isomer, unassigned) [Cpd No 48-11]
Cell LXRα efficacy [2]: 53 (101) %
EC50 ([2]; agonist mode): 0.053 µM

CCOC(=O)c1csc(-c2ccc(N3CCN(C(=O)OC(C)(C)C)[C@H](C(C)C)C3)cc2S(C)(=O)=O)n1 [2-4, ethyl (R)-2-(4-(4-(tert-butoxycarbonyl)-3-isopropylpiperazin-1-yl)-2-(methylsulfonyl)phenyl)thiazole-4-carboxylate]
Ki [1]: 1.07 µM
Cell LXRα efficacy [2]: 4227 (62) %
EC50 ([2]; agonist mode): 4.23 µM

CC(C)[C@@H]1CN(c2ccc(CO)c(S(C)(=O)=O)c2)CCN1c1ccnc(C(N)=O)c1 [4-6, (R)-4-(4-(4-(hydroxymethyl)-3-(methylsulfonyl)phenyl)-2-isopropylpiperazin-1-yl)picolinamide]
Ki [1]: > 3.33 µM
Cell LXRα efficacy [2]: 9385 (44) %
EC50 ([2]; agonist mode): 9.39 µM

CC(C)[C@@H]1CN(c2ccc(F)c(S(C)(=O)=O)c2)CCN1C(=O)OCC(F)(F)F [5-4, 2,2,2-trifluoroethyl (R)-4-(4-fluoro-3-(methylsulfonyl)phenyl)-2-isopropylpiperazine-1-carboxylate]
EC50 [3]: 0.732 µM

CC(C)[C@@H]1CN(c2cccc(S(C)(=O)=O)c2)CCN1c1ncc(Br)cn1 [7-16, (R)-5-bromo-2-(2-isopropyl-4-(3-(methylsulfonyl)phenyl)piperazin-1-yl)pyrimidine]
Cell LXRα efficacy [2]: 1282 (85) %
EC50 ([2]; agonist mode): 1.28 µM

CC(F)(F)[C@H]1CN(c2cccc(S(C)(=O)=O)c2)CCN1c1nccc(C(F)(F)F)n1 [7-25, (R)-2-(2-(1,1-difluoroethyl)-4-(3-(methylsulfonyl)phenyl)piperazin-1-yl)-4-(trifluoromethyl)pyrimidine]
Ki [1]: 4.82 µM
EC50 ([2]; agonist mode): > 20 µM

CC(F)(F)[C@@H]1CN(c2cccc(S(C)(=O)=O)c2)CCN1c1nccc(C(F)(F)F)n1 [7-26, (S)-2-(2-(1,1-difluoroethyl)-4-(3-(methylsulfonyl)phenyl)piperazin-1-yl)-4-(trifluoromethyl)pyrimidine]
Ki [1]: 0.193 µM
Cell LXRα efficacy [2]: 1211 (37) %
EC50 ([2]; agonist mode): 1.21 µM

CS(=O)(=O)c1cccc(N2CCN(c3nccc(C(F)(F)F)n3)[C@@H](C(F)(F)F)C2)c1 [7-27, (R)-2-(4-(3-(methylsulfonyl)phenyl)-2-(trifluoromethyl)piperazin-1-yl)-4-(trifluoromethyl)pyrimidine]
Ki [1]: 7.19 µM
EC50 [2]: > 20 µM

CC(C)[C@@H]1CN(c2ccc(F)c(S(C)(=O)=O)c2)CCN1c1ccc(F)c(C(F)(F)F)n1 [7-33, (R)-4-(4-fluoro-3-(methylsulfonyl)phenyl)-1-(5-fluoro-6-(trifluoromethyl)pyridin-2-yl)-2-isopropylpiperazine]
Cell LXRα efficacy [2]: 307 (115) %
EC50 ([2]; agonist mode): 0.307 µM

COC(=O)c1cnc(N2CCN(c3ccc(F)c(S(=O)(=O)N(C)Cc4ccc(OC)cc4)c3)C[C@H]2C(C)C)nc1C(F)(F)F [9-3, methyl (R)-2-(4-(4-fluoro-3-(N-(4-methoxybenzyl)-N-methylsulfamoyl)phenyl)-2-isopropylpiperazin-1-yl)-4-(trifluoromethyl)pyrimidine-5-carboxylate]
Cell LXRα efficacy [2]: 951 (50) %
EC50 ([2]; agonist mode): 0.951 µM

Cc1nc(N2CCN(c3ccc(F)c(S(C)(=O)=O)c3)C[C@@H]2C(C)(C)O)ccc1C(F)(F)F [10-9, (R)-2-(4-(4-fluoro-3-(methylsulfonyl)phenyl)-1-(6-methyl-5-(trifluoromethyl)pyridin-2-yl)piperazin-2-yl)propan-2-ol]
EC50 ([2]; agonist mode): > 20 µM

Cc1nc(N2CCN(c3ccc(F)c(S(C)(=O)=O)c3)C[C@H]2C(C)(C)O)ccc1C(F)(F)F [10-10, (S)-2-(4-(4-fluoro-3-(methylsulfonyl)phenyl)-1-(6-methyl-5-(trifluoromethyl)pyridin-2-yl)piperazin-2-yl)propan-2-ol]
Cell LXRα efficacy [2]: 13605 (107) %
EC50 ([2]; agonist mode): 13.6 µM

CC(C)[C@@H]1CN(c2ccc(F)c(S(C)(=O)=O)c2)CCN1c1ncc(CN)c(C(F)(F)F)n1 [15-2, (R)-(2-(4-(4-fluoro-3-(methylsulfonyl)phenyl)-2-isopropylpiperazin-1-yl)-4-(trifluoromethyl)pyrimidin-5-yl)methanamine]
EC50 ([2]; agonist mode): > 20 µM
Cell LXRβ efficacy [3]: 3001 (13) %
EC50 [3]: 3 µM

CS(=O)(=O)c1cc(N2CCN(c3ncc(C(=O)O)c(C(F)(F)F)n3)[C@H](c3ccc(F)cc3)C2)ccc1F [16-2, (R)-2-(4-(4-fluoro-3-(methylsulfonyl)phenyl)-2-(4-fluorophenyl)piperazin-1-yl)-4-(trifluoromethyl)pyrimidine-5-carboxylic acid]
EC50 ([2]; agonist mode): > 20 µM
EC50 [3]: > 20 µM

COC(=O)c1ccc(N2CCN(Cc3ccc(C(F)(F)F)c(Cl)c3)C(c3ccccc3)C2)cc1S(C)(=O)=O (centres unmarked) [46-38, methyl 4-(4-(3-chloro-4-(trifluoromethyl)benzyl)-3-phenylpiperazin-1-yl)-2-(methylsulfonyl)benzoate]
Cell LXRα efficacy [2]: 1088 (25) %
EC50 ([2]; agonist mode): 1.09 µM

CS(=O)(=O)c1cccc(N2CCN(Cc3ccc(C(F)(F)F)nc3)C(c3ccc(Br)cc3)C2)c1 (centres unmarked) [46-61, 2-(4-bromophenyl)-4-(3-(methylsulfonyl)phenyl)-1-((6-(trifluoromethyl)pyridin-3-yl)methyl)piperazine]
EC50 ([2]; agonist mode): > 20 µM

CS(=O)(=O)c1cccc(N2CCN(C[C@H]3CCC[C@@H](C(F)(F)F)C3)[C@@H](c3ccc(F)cc3)C2)c1 [48-42, (S)-2-(4-fluorophenyl)-4-(3-(methylsulfonyl)phenyl)-1-(((1S,3R)-3-(trifluoromethyl)cyclohexyl)methyl)piperazine]
EC50 ([2]; agonist mode): > 20 µM

CS(=O)(=O)c1cccc(N2CCN(C[C@@H]3C[C@@H]4[C@H](C3)C4(F)F)[C@H](c3ccccc3)C2)c1 [48-67, (R)-1-(((1R,3s,5S)-6,6-difluorobicyclo[3.1.0]hexan-3-yl)methyl)-4-(3-(methylsulfonyl)phenyl)-2-phenylpiperazine]
Cell LXRα efficacy [2]: 7547 (30) %
EC50 [2]: 7.55 µM
Cell LXRβ efficacy [3, 4]: 47%
EC50 [3, 5]: 2.4 µM

CC(C)[C@H]1CN(c2cccc(S(C)(=O)=O)c2)CCN1CC1CCC(C(F)(F)F)NC1 (stereo partly drawn) [48-68, (2S)-2-isopropyl-4-(3-(methylsulfonyl)phenyl)-1-((6-(trifluoromethyl)piperidin-3-yl)methyl)piperazine]
Cell LXRα efficacy [2]: 1224 (75) %
EC50 [2, 4]: 1.22 µM

CC(C)[C@@H]1CN(c2ccc(F)c(S(C)(=O)=O)c2)CCN1C(=O)OC1CC(F)(F)C1(F)F (stereo partly drawn) [Cpd No 5-1, 2,2,3,3-tetrafluorocyclobutyl (2R)-4-(4-fluoro-3-(methylsulfonyl)phenyl)-2-isopropylpiperazine-1-carboxylate]
EC50 [3]: 0.272 µM

CC(C)[C@@H]1CN(c2ccc(F)c(S(C)(=O)=O)c2)CCN1c1ncc(Cl)c(C2CC2)n1 [Cpd No 22-1, (R)-5-chloro-4-cyclopropyl-2-(4-(4-fluoro-3-(methylsulfonyl)phenyl)-2-isopropylpiperazin-1-yl)pyrimidine]
Cell LXRα efficacy [2]: 1482 (31) %
EC50 [2]: 1.48 µM
Cell LXRβ efficacy [3]: 139 (14) %
EC50 [3]: 0.139 µM

Cc1cnc(N2CCN(c3ccc(F)c(S(C)(=O)=O)c3)C[C@H]2C(C)C)nc1C(F)(F)F [Cpd No 37-3, (R)-2-(4-(4-fluoro-3-(methylsulfonyl)phenyl)-2-isopropylpiperazin-1-yl)-5-methyl-4-(trifluoromethyl)pyrimidine]
Cell LXRβ efficacy [3]: 11 (96) %
EC50 [3]: 0.011 µM
